Calls of active or inactive are those of the source. The calls are words filed in the database; no cut-off is given here.
Key:
[1] = target: Receptor tyrosine-protein kinase erbB-2 (Homo sapiens) (UniProt P04626); assay: Inhibition of HER2 (unknown origin) at 0.5 uM relative to control
[2] = target: Cyclin-Y/Cyclin-dependent kinase 16 (Homo sapiens) (UniProt Q00536+Q8ND76); assay: Inhibition of human CDK16/cyclin-Y at 0.5 uM relative to control; type: protein-complex assay
[3] = target: Cyclin-Y/Cyclin-dependent kinase 16 (Homo sapiens, UniProt Q00536); assay: Inhibition of human CDK16/cyclin-Y protein-protein complex; type: protein-complex assay
[4] = test system: U-937; assay: Induction of cell cycle arrest in human U-937 cells assessed as downregulation of CDK4 at 0 to 300 nM measured after 24 hrs by western blot analysis; type: functional, cell-based; conditions: dose 0-300 nM
[5] = target: NUAK family SNF1-like kinase 1 (Homo sapiens) (UniProt O60285); assay: Inhibition of human ARK5 at 0.5 uM assessed as competition rate relative to control
[6] = target: T1, Signal transducer and activator of transcription 5A (Homo sapiens) (UniProt P42229); assay: Inhibition of STAT5 activation in human U-937 cells assessed as decrease in P-STAT5 incubated for 0 to 24 hrs by Western blot analysis; type: cell-based; conditions: time 0-24 hrs, DDE = dose-dependent effect
T1 sequence (whole entry): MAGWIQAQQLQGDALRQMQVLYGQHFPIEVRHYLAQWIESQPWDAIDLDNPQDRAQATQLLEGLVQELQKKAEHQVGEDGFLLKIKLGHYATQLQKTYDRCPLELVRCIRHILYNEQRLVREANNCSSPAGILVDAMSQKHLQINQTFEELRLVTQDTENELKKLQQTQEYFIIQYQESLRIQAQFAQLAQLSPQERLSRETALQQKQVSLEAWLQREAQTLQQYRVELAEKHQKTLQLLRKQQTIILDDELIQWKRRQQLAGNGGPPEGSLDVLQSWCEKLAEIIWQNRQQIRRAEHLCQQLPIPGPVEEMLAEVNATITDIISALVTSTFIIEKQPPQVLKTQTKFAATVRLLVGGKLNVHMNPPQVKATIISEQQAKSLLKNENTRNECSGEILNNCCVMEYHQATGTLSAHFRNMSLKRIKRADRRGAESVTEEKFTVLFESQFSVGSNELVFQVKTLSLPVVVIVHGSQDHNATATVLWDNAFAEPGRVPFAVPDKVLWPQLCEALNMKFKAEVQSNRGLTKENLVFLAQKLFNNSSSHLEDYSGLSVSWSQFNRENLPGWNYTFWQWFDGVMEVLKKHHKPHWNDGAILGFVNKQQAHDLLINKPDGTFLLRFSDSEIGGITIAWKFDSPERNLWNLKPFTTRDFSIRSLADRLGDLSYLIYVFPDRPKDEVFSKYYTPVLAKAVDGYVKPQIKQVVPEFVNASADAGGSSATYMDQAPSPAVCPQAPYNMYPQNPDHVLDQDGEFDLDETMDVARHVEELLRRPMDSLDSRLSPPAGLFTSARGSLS

[7] = test system: U-937; assay: cells; conditions: Homo sapiens, U-937, 72 h
[8] = test system: U-937; assay: Induction of cell cycle arrest in human U-937 cells assessed as accumulation at G2/M phase at 33 nM measured after 24 hrs by propidium iodide staining based flow cytometric analysis (reference value: 21.41%); type: functional
[9] = target: Signal transducer and activator of transcription 3 (Homo sapiens) (UniProt P40763); assay: Inhibition of STAT3 activation in human U-937 cells assessed as decrease in P-STAT3 incubated for 0 to 24 hrs by Western blot analysis; type: cell-based; conditions: dose 200.0 µM, time 0-24 hrs, DDE = dose-dependent effect
[10] = AUC(0 to infinity) in 12 hr fasted SPF Sprague-Dawley rat at 15 mg/kg, po upon 2 hrs fasting post-administration upto 24 hrs; type: ADME, organism-based; design: dose 15 mg/kg, time < 24 hrs, route po; conditions: in vivo
[11] = test system: U-937; assay: Induction of cell cycle arrest in human U-937 cells assessed as accumulation at G2/M phase at 300 nM measured after 24 hrs by propidium iodide staining based flow cytometric analysis (reference value: 21.41%); type: functional
[12] = Toxicity in CB17-SCID mouse xenografted with human U-937 cells assessed as body weight loss at 12.5 to 50 mg/kg, po twice daily for 10 days; type: organism-based; conditions: in vivo, 240 h, dose 12.5-50 mg/kg, time 10 day
[13] = target: Tyrosine-protein kinase JAK1 (Homo sapiens, UniProt P23458); assay: Inhibition of human JAK1 at 0.5 uM relative to control
[14] = target: Non-receptor tyrosine-protein kinase TYK2 (Homo sapiens, UniProt P29597); assay: Inhibition of human TYK2
[15] = target: [Pyruvate dehydrogenase (acetyl-transferring)] kinase isozyme 1, mitochondrial (Homo sapiens) (UniProt Q15118); assay: Inhibition of PDK1 (unknown origin) at 0.5 uM relative to control
[16] = test system: U-937; assay: Induction of cell cycle arrest in human U-937 cells assessed as accumulation at S phase at 3.7 nM measured after 24 hrs by propidium iodide staining based flow cytometric analysis (reference value: 15.35%); type: functional
[17] = target: Tyrosine-protein kinase Blk (Homo sapiens) (UniProt P51451); assay: Inhibition of BLK (unknown origin) at 0.5 uM assessed as competition rate relative to control
[18] = target: Tyrosine-protein kinase Blk (Homo sapiens) (UniProt P51451); assay: Inhibition of BLK (unknown origin) at 0.5 uM relative to control
[19] = test system: U-937; assay: Induction of cell cycle arrest in human U-937 cells assessed as downregulation of Cyclic B1 at 0 to 300 nM measured after 24 hrs by western blot analysis; type: functional, cell-based; conditions: dose 0-300 nM
[20] = Cmax in 12 hr fasted SPF Sprague-Dawley rat at 15 mg/kg, po upon 2 hrs fasting post-administration measured upto 24 hrs; type: ADME, organism-based; design: time < 24 hrs, dose 15 mg/kg, route po; conditions: in vivo
[21] = test system: U-937; assay: Induction of cell cycle arrest in human U-937 cells assessed as downregulation of Cyclic E1 at 0 to 300 nM measured after 24 hrs by western blot analysis; type: functional, cell-based; conditions: dose 0-300 nM
[22] = test system: U-937; assay: Induction of cell cycle arrest in human U-937 cells assessed as downregulation of Cyclic D3 at 0 to 300 nM measured after 24 hrs by western blot analysis; type: functional, cell-based; conditions: dose 0-300 nM
[23] = Oral bioavailability in 12 hr fasted SPF Sprague-Dawley rat at 15 mg/kg upon 2 hrs fasting post-administration measured upto 24 hrs; type: ADME, organism-based; conditions: in vivo

Sequence of Tyrosine-protein kinase Blk (Homo sapiens) (P51451 2-505 limits assumed): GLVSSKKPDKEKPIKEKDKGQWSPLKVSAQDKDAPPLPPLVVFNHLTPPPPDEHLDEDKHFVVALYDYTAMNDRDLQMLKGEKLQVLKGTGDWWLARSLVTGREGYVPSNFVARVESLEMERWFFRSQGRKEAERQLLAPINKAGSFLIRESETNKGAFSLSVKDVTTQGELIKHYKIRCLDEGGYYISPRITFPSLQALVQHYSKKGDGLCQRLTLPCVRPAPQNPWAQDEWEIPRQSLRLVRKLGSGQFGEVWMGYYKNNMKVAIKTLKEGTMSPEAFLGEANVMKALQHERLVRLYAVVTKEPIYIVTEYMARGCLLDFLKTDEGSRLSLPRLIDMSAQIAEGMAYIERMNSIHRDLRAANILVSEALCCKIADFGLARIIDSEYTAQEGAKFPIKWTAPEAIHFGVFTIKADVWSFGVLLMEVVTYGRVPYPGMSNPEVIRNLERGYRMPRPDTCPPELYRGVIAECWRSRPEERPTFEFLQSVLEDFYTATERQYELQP
Sequence of Receptor tyrosine-protein kinase erbB-2 (Homo sapiens) (P04626 whole entry): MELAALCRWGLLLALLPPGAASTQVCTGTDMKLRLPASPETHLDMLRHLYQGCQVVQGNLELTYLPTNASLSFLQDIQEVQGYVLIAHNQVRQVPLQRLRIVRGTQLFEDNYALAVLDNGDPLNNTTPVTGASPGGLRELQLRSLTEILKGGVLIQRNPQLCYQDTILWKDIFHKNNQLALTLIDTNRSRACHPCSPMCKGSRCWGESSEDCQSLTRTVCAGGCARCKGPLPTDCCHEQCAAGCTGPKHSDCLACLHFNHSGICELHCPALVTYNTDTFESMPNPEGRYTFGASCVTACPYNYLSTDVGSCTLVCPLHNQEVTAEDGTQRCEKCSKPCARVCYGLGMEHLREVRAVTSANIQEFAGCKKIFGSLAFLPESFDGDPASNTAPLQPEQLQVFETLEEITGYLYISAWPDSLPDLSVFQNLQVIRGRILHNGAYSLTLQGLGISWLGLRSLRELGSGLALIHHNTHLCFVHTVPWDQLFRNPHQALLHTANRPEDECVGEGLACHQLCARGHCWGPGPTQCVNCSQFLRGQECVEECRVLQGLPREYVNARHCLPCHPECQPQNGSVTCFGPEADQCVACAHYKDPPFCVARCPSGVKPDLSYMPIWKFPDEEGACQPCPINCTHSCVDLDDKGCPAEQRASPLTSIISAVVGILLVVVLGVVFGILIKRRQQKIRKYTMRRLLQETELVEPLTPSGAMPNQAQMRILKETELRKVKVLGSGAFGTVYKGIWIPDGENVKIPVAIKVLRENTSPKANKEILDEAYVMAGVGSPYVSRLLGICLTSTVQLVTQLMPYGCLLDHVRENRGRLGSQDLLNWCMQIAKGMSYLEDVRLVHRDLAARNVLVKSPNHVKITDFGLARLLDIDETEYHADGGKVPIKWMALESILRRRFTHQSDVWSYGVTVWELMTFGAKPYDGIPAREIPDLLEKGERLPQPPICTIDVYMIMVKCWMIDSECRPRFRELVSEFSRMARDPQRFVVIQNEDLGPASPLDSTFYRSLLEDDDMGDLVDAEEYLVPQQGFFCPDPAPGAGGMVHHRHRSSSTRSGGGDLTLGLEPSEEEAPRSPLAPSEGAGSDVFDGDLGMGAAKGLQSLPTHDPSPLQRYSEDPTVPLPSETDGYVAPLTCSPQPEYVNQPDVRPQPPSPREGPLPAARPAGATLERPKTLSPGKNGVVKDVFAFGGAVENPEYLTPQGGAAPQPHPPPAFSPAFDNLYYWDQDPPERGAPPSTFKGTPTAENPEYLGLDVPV
Sequence of Signal transducer and activator of transcription 3 (Homo sapiens) (P40763 whole entry): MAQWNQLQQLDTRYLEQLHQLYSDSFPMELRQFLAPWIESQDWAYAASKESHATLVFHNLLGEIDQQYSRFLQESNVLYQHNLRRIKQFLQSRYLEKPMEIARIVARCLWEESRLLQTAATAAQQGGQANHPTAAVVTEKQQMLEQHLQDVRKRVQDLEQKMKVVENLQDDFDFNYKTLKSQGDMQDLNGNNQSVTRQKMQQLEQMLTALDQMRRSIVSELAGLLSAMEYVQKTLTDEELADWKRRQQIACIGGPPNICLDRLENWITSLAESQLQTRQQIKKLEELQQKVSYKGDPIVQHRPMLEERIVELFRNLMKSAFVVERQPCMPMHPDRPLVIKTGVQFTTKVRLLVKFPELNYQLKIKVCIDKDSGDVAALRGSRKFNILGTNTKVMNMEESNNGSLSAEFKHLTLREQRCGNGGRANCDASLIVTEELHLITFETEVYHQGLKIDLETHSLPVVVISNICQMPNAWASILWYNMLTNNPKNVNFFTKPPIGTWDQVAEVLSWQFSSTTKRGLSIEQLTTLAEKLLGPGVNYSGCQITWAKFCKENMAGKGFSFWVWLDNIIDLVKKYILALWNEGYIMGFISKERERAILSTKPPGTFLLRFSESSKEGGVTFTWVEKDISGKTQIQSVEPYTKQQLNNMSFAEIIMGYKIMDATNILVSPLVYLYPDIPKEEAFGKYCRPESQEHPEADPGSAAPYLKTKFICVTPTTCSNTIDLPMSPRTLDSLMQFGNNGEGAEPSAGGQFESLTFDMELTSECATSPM
Sequence of Cyclin-Y/Cyclin-dependent kinase 16 (Q00536 whole entry): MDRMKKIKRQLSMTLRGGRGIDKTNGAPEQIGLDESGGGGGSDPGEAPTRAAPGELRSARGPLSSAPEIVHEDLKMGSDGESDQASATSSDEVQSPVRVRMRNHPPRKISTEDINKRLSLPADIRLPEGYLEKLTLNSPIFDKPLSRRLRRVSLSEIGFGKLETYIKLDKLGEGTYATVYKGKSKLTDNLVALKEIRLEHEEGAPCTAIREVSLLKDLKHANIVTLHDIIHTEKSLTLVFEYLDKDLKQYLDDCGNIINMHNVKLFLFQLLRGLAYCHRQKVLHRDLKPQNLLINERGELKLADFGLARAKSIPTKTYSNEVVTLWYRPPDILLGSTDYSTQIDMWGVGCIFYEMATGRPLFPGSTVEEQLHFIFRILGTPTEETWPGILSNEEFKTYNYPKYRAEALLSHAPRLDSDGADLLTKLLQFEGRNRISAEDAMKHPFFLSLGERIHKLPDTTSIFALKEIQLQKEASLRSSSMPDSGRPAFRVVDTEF
Sequence of Cyclin-Y/Cyclin-dependent kinase 16 (Q8ND76 whole entry, further chain): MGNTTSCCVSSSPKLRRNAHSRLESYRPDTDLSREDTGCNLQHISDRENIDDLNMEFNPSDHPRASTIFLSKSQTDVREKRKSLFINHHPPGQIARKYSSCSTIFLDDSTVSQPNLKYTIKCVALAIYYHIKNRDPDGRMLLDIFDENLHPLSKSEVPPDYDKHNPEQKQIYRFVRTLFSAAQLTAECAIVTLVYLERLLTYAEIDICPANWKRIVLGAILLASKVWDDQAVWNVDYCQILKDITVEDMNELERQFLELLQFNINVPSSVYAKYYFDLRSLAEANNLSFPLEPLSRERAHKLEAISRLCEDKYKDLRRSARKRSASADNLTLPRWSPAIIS
Sequence of Non-receptor tyrosine-protein kinase TYK2 (P29597 whole entry): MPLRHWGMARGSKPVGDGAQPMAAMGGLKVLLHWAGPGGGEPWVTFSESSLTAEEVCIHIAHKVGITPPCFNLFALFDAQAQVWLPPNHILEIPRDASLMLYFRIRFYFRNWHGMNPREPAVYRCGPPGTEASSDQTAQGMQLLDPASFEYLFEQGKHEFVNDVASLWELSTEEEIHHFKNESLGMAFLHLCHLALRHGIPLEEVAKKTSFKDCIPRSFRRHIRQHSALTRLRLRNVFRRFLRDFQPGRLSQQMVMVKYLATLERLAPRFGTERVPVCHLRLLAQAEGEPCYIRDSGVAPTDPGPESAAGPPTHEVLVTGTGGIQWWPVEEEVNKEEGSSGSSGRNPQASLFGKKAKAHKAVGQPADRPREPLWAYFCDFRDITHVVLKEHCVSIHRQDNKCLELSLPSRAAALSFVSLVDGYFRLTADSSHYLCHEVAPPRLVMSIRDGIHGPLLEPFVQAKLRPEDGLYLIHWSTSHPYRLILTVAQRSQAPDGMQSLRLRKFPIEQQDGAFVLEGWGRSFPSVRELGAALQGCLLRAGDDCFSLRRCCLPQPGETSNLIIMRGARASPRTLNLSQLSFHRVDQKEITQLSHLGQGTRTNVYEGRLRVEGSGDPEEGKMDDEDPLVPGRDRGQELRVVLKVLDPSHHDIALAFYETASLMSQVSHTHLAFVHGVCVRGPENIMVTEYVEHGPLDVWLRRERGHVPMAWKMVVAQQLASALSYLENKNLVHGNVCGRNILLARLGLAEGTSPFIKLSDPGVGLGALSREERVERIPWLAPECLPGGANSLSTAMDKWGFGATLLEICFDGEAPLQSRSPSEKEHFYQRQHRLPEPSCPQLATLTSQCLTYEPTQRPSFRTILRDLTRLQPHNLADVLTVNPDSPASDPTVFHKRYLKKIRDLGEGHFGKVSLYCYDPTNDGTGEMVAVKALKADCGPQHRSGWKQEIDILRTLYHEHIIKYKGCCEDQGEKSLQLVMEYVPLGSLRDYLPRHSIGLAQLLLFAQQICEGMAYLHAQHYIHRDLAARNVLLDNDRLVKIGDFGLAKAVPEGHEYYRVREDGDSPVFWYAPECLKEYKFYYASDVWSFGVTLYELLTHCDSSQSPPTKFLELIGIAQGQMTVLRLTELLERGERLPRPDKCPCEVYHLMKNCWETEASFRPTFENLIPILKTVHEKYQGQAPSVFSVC

inhibition [1]: 115%
inhibition [2]: 30%
IC50 [3]: 135 nM
inhibition [5]: 70%
inhibition [6]: Dde
IC50 [7]: 20.2 nM
inhibition [9]: Dde
AUC(0-inf) [10]: 334 ng·h/mL
inhibition [13]: 84%
IC50 [14]: 365 nM
inhibition [15]: 111%
inhibition [17]: 40%
inhibition [18]: 60%
Cmax [20]: 238 ng/mL
bioavailability [23]: 20.7%
Compound: C=CC(=O)Nc1cc(Nc2ncc(Cl)c(O[C@@H]3CO[C@H]4[C@@H]3OC[C@H]4OC)n2)ccc1N(C)CCN(C)C
Activity [4]: Active
Activity [8]: 21.31%
Activity [11]: 15.33%
Activity [12]: Non-Toxic
Activity [16]: 15.23%
Activity [19]: Active
Activity [21]: Active
Activity [22]: Active
